Experiments:
FPTase [1] = biological target: T1, FPTase (Homo sapiens, UniProt P49354+P49356); experiment: in vitro FTase Inhibition Assay, H-Ras used as substrate for farnesylation; format: biochemical; details: Table I, read-out: IC50 H-Ras*
FPTase [2] = biological target: T1, FPTase; experiment: in vitro FTase Inhibition Assay, K-Ras used as substrate for farnesylation; format: biochemical; details: Table I

COc1cccc(S(=O)(=O)C2(CCCC#Cc3cccs3)SC(=O)NC2=O)c1 (stereo not drawn) [Example 164, 5-(3-Methoxybenzenesulfonyl)-5-(5-thiophen-2-yl-pent-4-ynyl)-thiazolidine-2,4-dione]
IC50 (FPTase [1]): 150 nM | melting point: 133 to 135 °C | IC50 (FPTase [2]): > 10000 nM

COc1ccc(S(=O)(=O)C2(CCCC#Cc3cccs3)SC(=O)NC2=O)cc1 (stereo not drawn) [Example 166, 5-(4-Methoxybenzenesulfonyl)-5-(5-thiophen-2-yl-pent-4-ynyl)-thiazolidine-2,4-dione]
IC50 (FPTase [1]): 150 nM | melting point: 60 to 66 °C | IC50 (FPTase [2]): 5300 nM

Cc1ccc(S(=O)(=O)C2(CC#Cc3ccc(-c4ccccc4)cc3)SC(=O)NC2=O)cc1 (stereo not drawn) [Example 169, 5-(3-Biphenyl-4-yl-prop-2-ynyl)-5-(toluene-4-sulfonyl)-thiazolidine-2,4-dione]
IC50 (FPTase [1]): 100 nM | melting point: 179 to 180 °C | IC50 (FPTase [2]): 1800 nM

Cc1ccc(S(=O)(=O)C2(CC#Cc3ccc(Oc4ccccc4)cc3)SC(=O)NC2=O)cc1 (stereo not drawn) [Example 170, 5-[3-(4-Phenoxyphenyl)prop-2-ynyl]-5-(toluene-4-sulfonyl)-thiazolidine-2,4-dione]
IC50 (FPTase [1]): 380 nM | melting point: 64 to 66 °C | IC50 (FPTase [2]): 4700 nM
